Entries after “also recorded” stand apart in the source; their conditions may differ.
Tests used:
[1] = system: human neutrophils; experiment: Reactive oxygen species formation (H2DCF-DA); format: cell-based; settings: n = 3, Figure 8
Description: Figure 8 When added simultaneously, LRR11 potentiates the prooxidant effects of oligonucleotides. H2DCF-DA-stained PMNLs (1 × 10^6/mL) were cultured for 1 h at 37 °C in 5% CO2 without additives or in the presence of 1 µM ODN, supplemented (shaded) or not (solid fill) with 1 µM LRR11. DCF green fluorescence signals (ex. 485 nm, em. 538 nm) were monitored every 5 min for an hour. Values represent the means ± SEM of DCF fluorescence intensity increments (RFU) in 30 min after stimulus addition (n = 3). * p < 0.05 for the pairs of data specified, as indicated by two-way ANOVA followed by Tukey’s multiple comparison test.
The level of intracellular production of reactive oxygen species was monitored by measuring the green fluorescence of H2DCF-DA-labeled oxidized product incorporated into cells according to the manufacturer’s protocol. Briefly, human neutrophils were incubated with 5 μM carboxy-H2DCF-DA (Molecular Probe, Eugene, OR, USA) for 60 min at room temperature, followed by rinsing with PBS. […] Fluorescent cell staining (excitation at 485 nm and emission at 538 nm) was recorded at CLARIOstar fluorescence microplate reader, using MARS Data Analysis Software, version 3.30 (both hardware and software are from BMG Labtech, Ortenberg, Germany).

[2] = system: human neutrophils, 5-LOX metabolites; experiment: 5-LOX metabolite production in neutrophils without bacteria or other phagocytosis targets; format: cell-based; settings: in the absence of bacteria or other targets for phagocytosis
Description: Human neutrophils synthesize 5-LOX metabolites (leukotriene B4 (LTB4) and its isomers, ω-OH-LTB4 and 5-HETE), during phagocytosis of opsonized zymosan or S. typhimurium bacteria. In the absence of bacteria or other targets for phagocytosis, treatment of neutrophils with ODNs listed in Table 1 or with LRR11, produce less than 1 ng of LTB4, its isomers, ω-OH-LTB4, and 5-HETE per 10^7 PMNLs. The potential of the LRR11 peptide and ODNs to regulate the synthesis of products catalyzed by 5-LOX was assessed after cell incubation with ODNs (+/−LRR11) followed by the addition of opsonized S. typhimurium bacteria (OS). To test whether neutrophil incubation with ODNs, LRR11 and bacteria affects cell viability, we assessed phosphatidylserine externalization and the integrity of neutrophil membranes after 20 min with ODNs (+/−LRR11) followed by 15 min with OS at 37 °C. The data obtained by flow cytometry using double Alexa Fluor-conjugated Annexin V/propidium iodide staining indicate that in our experiment the percentage of viable cells exceeds 96% (Figure S1).
Human neutrophils were isolated from freshly taken citrate-anticoagulated peripheral blood from healthy individuals using standard methods. Leukocyte-rich plasma was prepared by sedimentation of erythrocytes with 3% dextran T-500 at room temperature. […]

Sequence: QLRKLNLSFNYQKRVSFAHLSLAPSFGSLV [LRR11, 30 amino acid peptide from leucine-rich repeat of TLR9]
- effect of LRR11 on prooxidant potential of ODNs ([1]; 1 µM LRR11 + 1 µM ODN, 30 min): Notably enhancing the prooxidant potential of the studied ODNs, in particular, CpG-containing ones; also recorded: only CpG-ODNs in combination with LRR11 enhanced responses
- effect of LRR11 alone on synthesis of reactive oxygen species ([1]; 1 µM LRR11, 37 °C): does not affect the synthesis of reactive oxygen species
- LTB4, its isomers, ω-OH-LTB4, and 5-HETE produced [2]: less than 1 ng per 10^7 PMNLs

From article PMC7961786, “Magic Peptide: Unique Properties of the LRR11 Peptide in the Activation of Leukotriene Synthesis in Human Neutrophils” (International Journal of Molecular Sciences, 2021)
